Assay results from ChEMBL document CHEMBL6092179, “Discovery of CLKs inhibitors for the treatment of non-small cell lung cancer” (Eur J Med Chem, 2024).
The source made the active and inactive calls. The calls are words filed in the database; no cut-off is given here.

Columns and labels:
NCI-H1299 [1] = assay: Inhibition of Wnt pathway in human NCI-H1299 cells assessed as downregulation of Axin2 expression at 0.1 to 1 uM incubated for 48 hrs by Western blotting analysis; type: cell-based; conditions: dose 0.1-1 µM
[2] = target: Homeodomain-interacting protein kinase 1 (Homo sapiens) (UniProt Q86Z02); assay: Inhibition of HIPK1 (unknown origin) at 100 nM by ADP-Glo assay relative to control
NCI-H1299 [3] = assay: Induction of apoptosis in human NCI-H1299 cells assessed as viable cells at 2.5 uM incubated for 24 hrs by annexin V-FITC/PI staining based flow cytometric analysis (reference value: 95 %); type: functional; conditions: read-out: Activity
NCI-H1299 [4] = assay: Inhibition of Wnt pathway in human NCI-H1299 cells assessed as downregulation of c-Myc expression at 0.1 to 1 uM incubated for 48 hrs by Western blotting analysis; type: cell-based; conditions: dose 0.1-1 µM
NCI-H1299 [5] = assay: Induction of apoptosis in human NCI-H1299 cells assessed as viable cells at 0.25 uM incubated for 24 hrs by annexin V-FITC/PI staining based flow cytometric analysis (reference value: 95 %); type: functional; conditions: read-out: Activity
[6] = system: Osimertinib-resistant NCI-H1975 cell; assay: cells; conditions: Homo sapiens, 96 h
Description: Antiproliferative activity against human Osimertinib-resistant NCI-H1975 cell cultured as 3D spheroids assessed as inhibition of cell growth incubated for 96 hrs by CellTiter-Glo luminescence assay

NCI-H1299 [7] = assay: Induction of apoptosis in human NCI-H1299 cells assessed as downregulation of ERK expression incubated for 48 hrs by Western blotting analysis; type: functional, cell-based
NCI-H1299 [8] = assay: Induction of apoptosis in human NCI-H1299 cells assessed as downregulation of AKT expression incubated for 12 hrs by Western blotting analysis; type: functional, cell-based
NCI-H1299 [9] = assay: Induction of apoptosis in human NCI-H1299 cells assessed as downregulation of BCL-2 expression at 0.1 to 1 uM incubated for 48 hrs by Western blotting analysis; type: functional, cell-based; conditions: dose 0.1-1 µM
NCI-H1299 [10] = assay: Induction of autophagy in human NCI-H1299 cells assessed as effect on LC3I protein expression at 0.1 to 1 uM incubated for 48 hrs by Western blotting analysis; type: functional, cell-based; conditions: dose 0.1-1 µM
[11] = target: Dual specificity protein kinase CLK3 (Homo sapiens, UniProt P49761); assay: Inhibition of CLK3 (unknown origin) at 100 nM by ADP-Glo assay relative to control
NCI-H1299 [12] = assay: Induction of apoptosis in human NCI-H1299 cells assessed as downregulation of mTOR expression incubated for 12 hrs by Western blotting analysis; type: functional, cell-based
NCI-H1299 [13] = assay: Induction of apoptosis in human NCI-H1299 cells assessed as downregulation of MCL-1 expression at 0.1 to 1 uM incubated for 48 hrs by Western blotting analysis; type: functional, cell-based; conditions: dose 0.1-1 µM
[14] = target: Dual specificity tyrosine-phosphorylation-regulated kinase 1B (Homo sapiens) (UniProt Q9Y463); assay: Inhibition of DYRK1B (unknown origin) at 100 nM by ADP-Glo assay relative to control
NCI-H1299 [15] = assay: Induction of apoptosis in human NCI-H1299 cells assessed as viable cells at 0.1 uM incubated for 24 hrs by annexin V-FITC/PI staining based flow cytometric analysis (reference value: 95 %); type: functional; conditions: read-out: Activity
NCI-H1299 [16] = assay: Inhibition of AKT phosphorylation in human NCI-H1299 cells at 0.1 to 1 uM incubated for 12 hrs by Western blotting analysis; type: cell-based; conditions: dose 0.1-1 µM
[17] = target: Dual specificity protein kinase CLK4 (Homo sapiens, UniProt Q9HAZ1); assay: Inhibition of CLK4 (unknown origin) at 100 nM by ADP-Glo assay relative to control
HCC827 = assay: cells; conditions: Homo sapiens, HCC827, 48 h
Description: Antiproliferative activity against human HCC827 cells assessed as inhibition of cell growth incubated for 48 hrs by MTT assay

[18] = target: T1, Dual specificity protein kinase CLK1 (Homo sapiens, UniProt P49759); assay: Inhibition of CLK in human NCI-H1299 cells assessed as downregulation of SRSF5 phosphorylation at 0.1 to 1 uM incubated for 1 hr by Western blotting analysis; type: cell-based; conditions: dose 0.1-1 µM
NCI-H1299 [19] = assay: Induction of apoptosis in human NCI-H1299 cells at 0.1 to 2.5 uM incubated for 24 hrs by annexin V-FITC/PI staining based flow cytometric analysis relative to control; type: functional; conditions: dose 0.1-2.5 µM
NCI-H1299 [20] = assay: Induction of apoptosis in human NCI-H1299 cells assessed as early apoptotic cells at 2.5 uM incubated for 24 hrs by annexin V-FITC/PI staining based flow cytometric analysis (reference value: 0.49 %); type: functional
[21] = target: Serine/threonine-protein kinase mTOR (Homo sapiens) (UniProt P42345); assay: Inhibition of mTOR phosphorylation in human NCI-H1299 cells at 0.1 to 1 uM incubated for 12 hrs by Western blotting analysis; type: cell-based; conditions: dose 0.1-1 µM
NCI-H1299 [22] = assay: Induction of apoptosis in human NCI-H1299 cells assessed as late apoptotic cells at 2.5 uM incubated for 24 hrs by annexin V-FITC/PI staining based flow cytometric analysis (reference value: 2.23 %); type: functional
NCI-H1299 [23] = assay: Induction of apoptosis in human NCI-H1299 cells assessed as viable cells at 0.5 uM incubated for 24 hrs by annexin V-FITC/PI staining based flow cytometric analysis (reference value: 95 %); type: functional; conditions: read-out: Activity
NCI-H1299 [24] = assay: Induction of apoptosis in human NCI-H1299 cells assessed as early apoptotic cells at 1 uM incubated for 24 hrs by annexin V-FITC/PI staining based flow cytometric analysis (reference value: 0.49 %); type: functional
cells = conditions: Homo sapiens, Osimertinib-resistant HCC827AR cell, 48 h
Description: Antiproliferative activity against human Osimertinib-resistant HCC827AR cell assessed as inhibition of cell growth incubated for 48 hrs by MTT assay

NCI-H1299 [25] = assay: Induction of autophagy in human NCI-H1299 cells assessed as downregulation of p62 expression at 0.1 to 1 uM incubated for 48 hrs by Western blotting analysis; type: functional, cell-based; conditions: dose 0.1-1 µM
NCI-H1299 [26] = assay: Induction of apoptosis in human NCI-H1299 cells assessed as late apoptotic cells at 1 uM incubated for 24 hrs by annexin V-FITC/PI staining based flow cytometric analysis (reference value: 2.23 %); type: functional
A549 = assay: cells; conditions: Homo sapiens, A549, 48 h
Description: Antiproliferative activity against human A549 cells assessed as inhibition of cell growth incubated for 48 hrs by MTT assay

NCI-H1975 = assay: cells; conditions: Homo sapiens, NCI-H1975, 48 h
Description: Antiproliferative activity against human NCI-H1975 cells assessed as inhibition of cell growth incubated for 48 hrs by MTT assay

[27] = target: T1, Dual specificity protein kinase CLK1; assay: Inhibition of CLK in human NCI-H1299 cells assessed as downregulation of SRSF4 phosphorylation at 0.1 to 1 uM incubated for 1 hr by Western blotting analysis; type: cell-based; conditions: dose 0.1-1 µM
NCI-H1299 [28] = assay: Induction of apoptosis in human NCI-H1299 cells assessed as late apoptotic cells at 0.5 uM incubated for 24 hrs by annexin V-FITC/PI staining based flow cytometric analysis (reference value: 2.23 %); type: functional
NCI-H1299 [29] = assay: Induction of apoptosis in human NCI-H1299 cells assessed as necrotic cells at 1 uM incubated for 24 hrs by annexin V-FITC/PI staining based flow cytometric analysis (reference value: 2.28 %); type: functional
NCI-H1299 [30] = assay: Induction of apoptosis in human NCI-H1299 cells assessed as necrotic cells at 0.25 uM incubated for 24 hrs by annexin V-FITC/PI staining based flow cytometric analysis (reference value: 2.28 %); type: functional
[31] = target: T1, Dual specificity protein kinase CLK1; assay: Inhibition of CLK in human NCI-H1299 cells assessed as downregulation of SRSF6 phosphorylation at 0.1 to 1 uM incubated for 1 hr by Western blotting analysis; type: cell-based; conditions: dose 0.1-1 µM

T1 sequence (P49759 whole entry, looked up): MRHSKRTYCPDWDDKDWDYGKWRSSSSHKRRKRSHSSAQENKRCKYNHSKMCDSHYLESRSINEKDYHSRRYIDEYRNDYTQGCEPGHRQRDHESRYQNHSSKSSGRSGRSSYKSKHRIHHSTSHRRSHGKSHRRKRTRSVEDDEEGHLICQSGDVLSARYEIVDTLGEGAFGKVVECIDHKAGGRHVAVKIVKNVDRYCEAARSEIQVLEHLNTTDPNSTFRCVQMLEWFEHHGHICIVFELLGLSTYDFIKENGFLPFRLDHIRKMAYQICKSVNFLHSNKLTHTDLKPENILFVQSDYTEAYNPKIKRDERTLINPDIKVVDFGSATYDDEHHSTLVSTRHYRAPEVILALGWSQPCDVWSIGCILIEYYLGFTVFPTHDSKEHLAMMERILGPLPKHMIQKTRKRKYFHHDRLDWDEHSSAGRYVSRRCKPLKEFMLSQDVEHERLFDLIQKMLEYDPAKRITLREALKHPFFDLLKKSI
Sequence of Dual specificity tyrosine-phosphorylation-regulated kinase 1B (Homo sapiens) (Q9Y463 whole entry, looked up): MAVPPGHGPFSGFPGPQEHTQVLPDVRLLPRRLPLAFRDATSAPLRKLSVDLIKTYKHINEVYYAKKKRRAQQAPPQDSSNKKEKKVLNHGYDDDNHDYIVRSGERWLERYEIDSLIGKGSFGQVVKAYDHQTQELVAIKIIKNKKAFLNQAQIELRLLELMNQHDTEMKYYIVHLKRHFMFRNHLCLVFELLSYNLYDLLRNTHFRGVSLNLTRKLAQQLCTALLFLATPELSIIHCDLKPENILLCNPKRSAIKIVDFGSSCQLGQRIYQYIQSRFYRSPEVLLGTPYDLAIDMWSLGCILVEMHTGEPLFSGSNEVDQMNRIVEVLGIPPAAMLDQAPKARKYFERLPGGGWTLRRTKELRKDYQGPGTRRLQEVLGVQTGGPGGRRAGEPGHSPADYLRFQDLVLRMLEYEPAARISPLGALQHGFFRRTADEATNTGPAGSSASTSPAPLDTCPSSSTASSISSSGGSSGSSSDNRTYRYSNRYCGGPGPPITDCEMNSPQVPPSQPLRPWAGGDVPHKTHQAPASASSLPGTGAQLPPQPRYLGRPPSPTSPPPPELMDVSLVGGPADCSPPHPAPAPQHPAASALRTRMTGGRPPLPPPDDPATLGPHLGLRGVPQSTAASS
Sequence of Dual specificity protein kinase CLK3 (P49761 whole entry, looked up): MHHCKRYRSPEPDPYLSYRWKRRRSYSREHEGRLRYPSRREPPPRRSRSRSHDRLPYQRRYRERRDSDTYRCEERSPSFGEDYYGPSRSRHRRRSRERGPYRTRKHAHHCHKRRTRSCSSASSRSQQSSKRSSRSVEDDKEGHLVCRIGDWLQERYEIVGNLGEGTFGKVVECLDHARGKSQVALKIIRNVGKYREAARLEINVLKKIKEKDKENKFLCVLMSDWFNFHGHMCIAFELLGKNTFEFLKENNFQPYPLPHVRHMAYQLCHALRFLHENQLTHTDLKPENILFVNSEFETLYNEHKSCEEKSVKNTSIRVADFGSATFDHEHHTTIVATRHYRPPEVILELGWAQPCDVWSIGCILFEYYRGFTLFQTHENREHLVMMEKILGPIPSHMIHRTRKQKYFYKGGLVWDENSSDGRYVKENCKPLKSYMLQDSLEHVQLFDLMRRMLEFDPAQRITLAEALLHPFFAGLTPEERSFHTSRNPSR
Sequence of Dual specificity protein kinase CLK4 (Q9HAZ1 whole entry, looked up): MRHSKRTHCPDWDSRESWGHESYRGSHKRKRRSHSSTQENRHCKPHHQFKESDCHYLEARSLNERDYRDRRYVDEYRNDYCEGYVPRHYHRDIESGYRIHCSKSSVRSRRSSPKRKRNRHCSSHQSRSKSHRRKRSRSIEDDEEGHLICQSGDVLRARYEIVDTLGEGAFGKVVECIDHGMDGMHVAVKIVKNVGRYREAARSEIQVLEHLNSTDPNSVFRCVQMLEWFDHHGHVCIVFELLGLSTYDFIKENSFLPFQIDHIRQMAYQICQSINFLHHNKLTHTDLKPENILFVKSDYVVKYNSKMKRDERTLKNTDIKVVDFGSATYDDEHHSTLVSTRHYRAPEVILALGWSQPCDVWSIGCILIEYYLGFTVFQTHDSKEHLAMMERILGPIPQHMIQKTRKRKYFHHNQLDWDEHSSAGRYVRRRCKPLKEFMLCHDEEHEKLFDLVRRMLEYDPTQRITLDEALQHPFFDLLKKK
Sequence of Homeodomain-interacting protein kinase 1 (Homo sapiens) (Q86Z02 whole entry, looked up): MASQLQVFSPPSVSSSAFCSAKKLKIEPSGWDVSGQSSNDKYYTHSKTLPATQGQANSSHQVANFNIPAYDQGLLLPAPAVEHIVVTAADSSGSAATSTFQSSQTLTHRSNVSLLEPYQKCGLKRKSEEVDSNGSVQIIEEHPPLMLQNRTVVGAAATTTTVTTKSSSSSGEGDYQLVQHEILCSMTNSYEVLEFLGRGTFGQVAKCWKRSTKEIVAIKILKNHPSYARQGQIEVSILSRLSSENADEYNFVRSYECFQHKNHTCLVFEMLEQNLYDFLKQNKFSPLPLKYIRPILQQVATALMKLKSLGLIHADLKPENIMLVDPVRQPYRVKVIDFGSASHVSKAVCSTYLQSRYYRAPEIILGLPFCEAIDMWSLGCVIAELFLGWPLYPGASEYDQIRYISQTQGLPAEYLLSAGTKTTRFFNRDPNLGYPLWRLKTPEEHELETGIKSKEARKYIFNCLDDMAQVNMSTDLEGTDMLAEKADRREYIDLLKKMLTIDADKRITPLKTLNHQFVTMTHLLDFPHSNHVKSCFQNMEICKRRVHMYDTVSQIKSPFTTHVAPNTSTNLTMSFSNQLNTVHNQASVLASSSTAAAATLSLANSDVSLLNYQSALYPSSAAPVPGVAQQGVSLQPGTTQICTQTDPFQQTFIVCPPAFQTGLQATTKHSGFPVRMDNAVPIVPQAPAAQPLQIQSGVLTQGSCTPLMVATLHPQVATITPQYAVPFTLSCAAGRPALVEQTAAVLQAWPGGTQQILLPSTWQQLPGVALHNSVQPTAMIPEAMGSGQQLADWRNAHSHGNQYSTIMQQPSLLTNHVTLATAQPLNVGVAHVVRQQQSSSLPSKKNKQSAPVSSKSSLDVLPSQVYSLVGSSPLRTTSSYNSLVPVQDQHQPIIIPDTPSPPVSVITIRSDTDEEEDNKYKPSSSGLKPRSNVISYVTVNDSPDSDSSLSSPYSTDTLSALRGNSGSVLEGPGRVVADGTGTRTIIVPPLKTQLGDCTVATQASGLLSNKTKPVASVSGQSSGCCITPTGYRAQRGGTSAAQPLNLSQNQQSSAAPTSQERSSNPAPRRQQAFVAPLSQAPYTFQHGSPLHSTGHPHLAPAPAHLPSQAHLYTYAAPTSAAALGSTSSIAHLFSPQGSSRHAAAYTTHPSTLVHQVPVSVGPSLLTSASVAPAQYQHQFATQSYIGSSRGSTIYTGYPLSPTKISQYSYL

- inhibition [2]: 51.4%
- IC50 [6]: 238 nM
- inhibition [11]: 103%
- inhibition [14]: 84.4%
- inhibition [17]: 95%
- IC50 (HCC827): 160 nM
- inhibition [21]: Active
- IC50 (cells): 220 nM
- IC50 (A549): 170 nM
- IC50 (NCI-H1975): 150 nM
Compound: FC1(F)CCN(Cc2cncc(-c3ccc4[nH]nc(-c5nc(-c6ccco6)c(-c6ccco6)[nH]5)c4c3)c2)C1
- inhibition (NCI-H1299 [1]): Active
- viability at 2.5 µM (NCI-H1299 [3]): 82%
- inhibition (NCI-H1299 [4]): Active
- viability at 0.25 µM (NCI-H1299 [5]): 92.1%
- Activity (NCI-H1299 [7]): Dose-dependent-effect
- Activity (NCI-H1299 [8]): Dose-dependent-effect
- Activity (NCI-H1299 [9]): Active
- Activity (NCI-H1299 [10]): Active
- Activity (NCI-H1299 [12]): Dose-dependent-effect
- Activity (NCI-H1299 [13]): Active
- viability at 0.1 µM (NCI-H1299 [15]): 96.2%
- inhibition (NCI-H1299 [16]): Active
- inhibition [18]: Active; Showed Stronger Inhibition Compared To Indazole 1
- Activity (NCI-H1299 [19]): 3.7%
- Activity (NCI-H1299 [20]): 9.7%
- Activity (NCI-H1299 [22]): 6.71%
- viability at 0.5 µM (NCI-H1299 [23]): 85.7%
- Activity (NCI-H1299 [24]): 9.75%
- Activity (NCI-H1299 [25]): Active
- Activity (NCI-H1299 [26]): 5.23%
- inhibition [27]: Active; Showed Stronger Inhibition Compared To Indazole 1
- Activity (NCI-H1299 [28]): 5.16%
- Activity (NCI-H1299 [29]): 0.74%
- Activity (NCI-H1299 [30]): 1.78%
- inhibition [31]: Active; Showed Stronger Inhibition Compared To Indazole 1
